{"source": "PubChem BioAssay AID2253", "about": "(Southern Research Specialized Biocontainment Screening …, 2010)", "data": [{"system": "THP-1 viability, CellTiter-Glo luminescence, 72 h", "experiment": "THP-1 cell cytotoxicity, dose response, cytotoxicity control for Salmonella PhoP regulon inhibitors, S. typhimurium screen hits (AID 2253)", "units": {"EC50": "µM"}, "values": [{"smiles": "CCOc1ccc2c(c1)nc(SCC(=O)c1ccc(Br)s1)n2C", "EC50": 47.3}, {"smiles": "C[C@H]1c2cccc(O)c2C(O)=C2C(=O)[C@]3(O)C(O)=C(C(N)=O)C(=O)[C@@H](N(C)C)C3[C@@H](O)C21", "note": "(some centres not stated)", "EC50": 30.7}, {"smiles": "COc1cnc(-c2ccccn2)[nH]c1=O", "EC50": 25.6}, {"smiles": "Cc1ccc(-n2c(C)cc(C3=NNC(=NC4CC4)SC3)c2C)cc1C", "EC50": 21.4}, {"smiles": "COc1ccc(N(C(=O)CCl)C(C(=O)NCCc2ccccc2)c2cccs2)cc1", "note": "(configuration not stated)", "EC50": 3.46}, {"smiles": "CCCn1c(NCc2c[nH]c3ccccc23)nc2ccccc21", "EC50": 22.9}, {"smiles": "Clc1ccc(OCCn2ccnc2)c2ccccc12", "EC50": 43.5}, {"smiles": "COc1ccc(/C=C/c2nc3ccccc3n2Cc2ccccc2OC)cc1", "EC50": 13.2}, {"smiles": "c1ccc(Cc2nnc(-c3ccccc3)o2)cc1", "EC50": 30.7}, {"smiles": "CC(C)NCCCOc1ccc(Cl)cc1Br", "EC50": 44.7}, {"smiles": "CC1CCCC(C)N1/N=C/c1c[nH]c2ccc(Br)cc12", "note": "(configuration not stated)", "EC50": 14.4}, {"smiles": "Oc1ccc(C=Nc2ccc3ncccc3c2)c(O)c1", "EC50": 14.2}, {"smiles": "Cc1cc(Nc2ccccc2)nc2cc(O)ccc12", "EC50": 36.6}, {"smiles": "Oc1ccc(/C=N/NC(=S)Nc2cccnc2)c(O)c1", "EC50": 3.21}, {"smiles": "O=C(CSc1nc2ccccc2s1)N/N=C/c1cc([N+](=O)[O-])ccc1O", "EC50": 26.4}, {"smiles": "O=C(N/N=C/c1cc(Cl)ccc1O)c1ccncc1", "EC50": 5.12}, {"smiles": "OCCN1CCN(Cc2cc(Cl)c3cccnc3c2O)CC1", "EC50": 12}, {"smiles": "COc1cc(NC(=O)Nc2cccc(Cl)c2)c(OC)cc1NC(=O)CN1CCCCC1", "EC50": 15.5}, {"smiles": "Cc1[nH]c2ccccc2c1C(O)CN1CCN(c2cccc(C(F)(F)F)c2)CC1", "note": "(configuration not stated)", "EC50": 9.39}, {"smiles": "NC1=NC(=Nc2ccc(Cl)cc2)c2ccccc21", "EC50": 22.4}, {"smiles": "Cc1ccc(-c2csc(N=C(N)N)n2)c(C)c1", "EC50": 23.5}, {"smiles": "CCN1CCN(C(c2cccnc2)c2cc(Cl)c3cccnc3c2O)CC1", "note": "(configuration not stated)", "EC50": 8.34}, {"smiles": "CCOC(=O)N1CCN(S(=O)(=O)c2ccc(C(=O)NNc3nc4c(C)cc(C)cc4s3)cc2)CC1", "EC50": 3.28}, {"smiles": "O=C(N/N=C/C1CC=CCC1)c1ccc(Cl)cc1O", "note": "(configuration not stated)", "EC50": 26.4}, {"smiles": "O=C(NNC(=O)c1cnccn1)c1ccc(Cl)cc1", "EC50": 24.5}, {"smiles": "CCOc1ccc(CNc2ccc(N3CCCC3)cc2)cc1", "EC50": 11.8}, {"smiles": "N=c1c2c(n(Cc3ccc(Br)cc3)c3c1CCC3)CCCC2", "EC50": 3.88}, {"smiles": "Cc1cc(C(=O)N/N=C/c2cc(Br)cc([N+](=O)[O-])c2O)c2ccccc2n1", "EC50": 23}, {"smiles": "O=C(Oc1c(Cl)cc(Cl)c2cccnc12)c1ccco1", "EC50": 11.5}, {"smiles": "Cc1cc(C)c2nc(NNC(=O)c3ccc(S(=O)(=O)N4CCc5ccccc5C4)cc3)sc2c1", "EC50": 1.69}, {"smiles": "c1ccc2c(C3=NNC(=NC4CCCCC4)SC3)c[nH]c2c1", "EC50": 19.1}, {"smiles": "Cc1ccc(C=Nc2ccccc2C(N)=O)cc1", "EC50": 8.83}, {"smiles": "CC1N(C)c2cc(NC(=O)c3ccco3)ccc2C1(C)C", "note": "(configuration not stated)", "EC50": 7.51}, {"smiles": "C=CCc1ccccc1OCC(O)CN1CCN(CCN2C(=O)c3cccc4cccc(c34)C2=O)CC1", "note": "(configuration not stated)", "EC50": 16.8}, {"smiles": "O=C1c2cccc(OCC(=O)N3N=C(c4cccs4)CC3c3ccc(F)cc3)c2CCN1Cc1cccnc1", "note": "(configuration not stated)", "EC50": 47.9}, {"smiles": "CCCc1cc(-c2nc(N)ncc2-c2ccc3c(c2)OCCCO3)c(O)cc1OC", "EC50": 19.9}, {"smiles": "O=C(N/N=C/c1sc2ccccc2c1O)c1cccc2ccccc12", "EC50": 3.51}, {"smiles": "CCCCCCCCCCCCCCCC[n+]1cccc(C(=O)N(CC)CC)c1", "EC50": 0.64}, {"smiles": "Oc1ccc(CN2CCCc3ccccc32)c2cccnc12", "EC50": 3.37}, {"smiles": "CC(=O)n1cc(/C=N/NC(=O)c2sc(C)nc2C)c2ccccc21", "EC50": 11.6}, {"smiles": "COc1ccc(C(=O)Cn2nc(CNc3ccc(Br)cc3)[n+]3c2CCCCC3)cc1", "EC50": 7.74}, {"smiles": "N=c1n(Cc2ccccc2)c2ccccc2n1CC(O)COc1ccc(Cl)cc1Cl", "note": "(configuration not stated)", "EC50": 2.91}, {"smiles": "N=c1n(Cc2ccc(Cl)cc2)c2ccccc2n1CC(O)c1ccco1", "note": "(configuration not stated)", "EC50": 11.8}, {"smiles": "Cc1ccc(-c2csc(NC(=O)C[n+]3cc(-c4ccc(C)cc4)n4c3CCC4)n2)cc1", "EC50": 8.54}, {"smiles": "Cc1cc(C(=O)NNC(=S)NC(=O)/C=C/c2ccccc2Cl)n[nH]1", "EC50": 23.6}, {"smiles": "CCC(C)(C)c1ccc(OCCCC[n+]2ccc(C)cc2)c(C(C)(C)CC)c1", "EC50": 1.48}, {"smiles": "O=c1c(Cl)c(Cl)cnn1Cc1ccccc1Cl", "EC50": 2.95}]}]}
